# Data published in patent US20190309309A1, “BACTERIAL CELLS WITH IMPROVED TOLERANCE TO POLYOLS” (DANMARKS TEKNISKE UNIVERSITET, priority 2016, published 2019).
# “Also recorded” adds a separate entry of the source. Read-outs that look alike come from different tables or passages of the source.
# Experiments:
# [1] = tested on: Escherichia coli K-12 MG1655; assay: Screening for tolerance in wild-type cells: growth in varying concentrations of diols (Biolector); assay type: cell-based; settings: for growth observed at maximum concentration / Maximum concentration for robust growth: K-12 MG1655; for toxicity threshold: E. coli
# [2] = tested on: E. coli K-12 MG1655; assay type: cell-based
# [3] = tested on: K-12 MG1655; assay type: cell-based, Escherichia coli
# [4] = growth rate of K-12 MG1655, diol 0.5% (v/v), M9+1% glucose, 37° C.
# [5] = growth rate of K-12 MG1655, diol 1% (v/v)
# [6] = growth rate of K-12 MG1655, diol 2% (v/v)
# [7] = growth rate of K-12 MG1655, diol 3.5% (v/v)
# [8] = growth rate of K-12 MG1655, diol 5% (v/v)
# [9] = growth rate of K-12 MG1655, diol 7.5% (v/v)
# [10] = growth rate of K-12 MG1655, diol 10% (v/v)
# [11] = lag time of K-12 MG1655, diol 0.5% (v/v)
# [12] = lag time of K-12 MG1655, diol 1% (v/v)
# [13] = lag time of K-12 MG1655, diol 2% (v/v)
# [14] = lag time of K-12 MG1655, diol 3.5% (v/v)
# [15] = lag time of K-12 MG1655, diol 5% (v/v)
# [16] = K-12 MG1655, diol 1 % (v/v), Growth Profiler
# [17] = K-12 MG1655, diol 2 % (v/v), Growth Profiler
# [18] = K-12 MG1655, diol 3 % (v/v), Growth Profiler
# [19] = K-12 MG1655, diol 4 % (v/v), Growth Profiler
# [20] = K-12 MG1655, diol 5 % (v/v), Growth Profiler
# [21] = K-12 MG1655, diol 6 % (v/v), Growth Profiler
# [22] = K-12 MG1655, diol 7.5 % (v/v), Growth Profiler
SMILES,"μ, mean [1, 4] [h⁻¹]","μ, mean [1, 5] [h⁻¹]","μ, mean [1, 6] [h⁻¹]","μ, mean [1, 7] [h⁻¹]","μ, mean [1, 8] [h⁻¹]","μ, mean [1, 9] [h⁻¹]","μ, mean [1, 10] [h⁻¹]","tlag, mean [1, 11] [h]","tlag, mean [1, 12] [h]","tlag, mean [1, 13] [h]","tlag, mean [1, 14] [h]",further results
"CCCC(O)CO (centres unmarked) [1,2-pentanediol]",0.524,0.346,0.000,0.000,0.000,0.000,0.000,0.4,1.3,,,growth observed at maximum concentration [1]: 1%
"CC(O)CO (centres unmarked) [1,2-propanediol]",0.701,0.662,0.595,0.442,0.406,0.579,0.000,0.9,0.8,0.8,0.5,"Maximum concentration for robust growth [1]: 7.5%; tlag, mean [1, 15]: 2.3 h; tlag, mean ([1]; lag time of K-12 MG1655, diol 7.5% (v/v)): 8.3 h"
"OCCCO [1,3-propanediol]",,,,,,,,,,,,"tlag, mean [2, 16]: 5.3 h; μ, mean [2, 16]: 0.670 h⁻¹; tlag, mean [2, 17]: 6.1 h; μ, mean [2, 17]: 0.686 h⁻¹; tlag, mean [2, 18]: 7.3 h; μ, mean [2, 18]: 0.603 h⁻¹; tlag, mean [2, 19]: 9.6 h; μ, mean [2, 19]: 0.463 h⁻¹; tlag, mean [2, 20]: 12.5 h; μ, mean [2, 20]: 0.277 h⁻¹; tlag, mean [2, 21]: 14.7 h; μ, mean [2, 21]: 0.201 h⁻¹; tlag, mean [2, 22]: 24.9 h; μ, mean [2, 22]: 0.118 h⁻¹; growth inhibition of E. coli K-12 MG1655 (in words) ([2]; variable concentrations, Growth Profiler): elicited growth inhibition"
"OCCCCO [1,4-butanediol]",,,,,,,,,,,,growth inhibition of E. coli K-12 MG1655 (in words) [2]: elicited growth inhibition
"OCCCCCO [1,5-pentanediol]",0.613,0.569,0.437,0.158,0.000,0.000,0.000,0.3,0.5,0.9,-8.8,growth observed at maximum concentration [1]: 3.5%
"CC(O)C(C)O (centres unmarked) [2,3-butanediol]",0.944,0.791,0.754,0.498,0.265,0.054,0.000,2.2,1.8,2.1,1.6,"toxicity threshold [1]: 7.5 % (v/v); toxicity threshold ([1]; conversion of 7.5% (v/v)): 74.0 g/L; Maximum concentration for robust growth [1]: 5%; tlag, mean [1, 15]: -1.2 h"
"CSCC[C@H](N)C(=O)O [methionine, L-methionine]",,,,,,,,,,,,"effect on growth of K-12 MG1655 in 2,3-butanediol [3]: significantly restored; effect on growth of evolved strains in 1,2-propanediol [3]: did not have a significantly enhanced growth rate; also recorded: minimal effect; effect on growth of the wild-type strain in 1,2-propanediol [3]: significantly restored; also recorded: restore growth of the wild-type strain; effect on growth rate of evolved strains in 2,3-butanediol [3]: did not have a significantly enhanced growth rate increase"
